TGI data for five compounds are collected here from PubChem BioAssay (NCI).

SMILES strings stand for the structures.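 Compound exposure: 48 hours, 5 concentrations, 96-well plates. TGI: concentration producing complete growth inhibition.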

Assay in all cases: NCI anticancer screen, dose series, 48 h
For assay [1], the system named is DMS 114 small cell lung.
The subject of assay [2] is SNB-78 CNS.
The subject of assay [3] is MOLT-4 leukemia.
The test system of assay [4] is XF 498 CNS.
In assay [5] the test system is KM20L2 colon.
Assay [6] has as its system A549 NSCLC.
The test system of assay [7] is SK-MEL-28 melanoma.
The subject of assay [8] is LXFL 529 NSCLC.
The test system of assay [9] is SK-MEL-5 melanoma.
For assay [10], the system named is M19-MEL melanoma.

As for `CCCCCC/C=C1\CCC(CN2CCOCC2)C1=O` (configuration not stated), the TGI in [1] is 33.2 µM; in assay [2] it was 50.6 µM; in [3], 18.1 µM; in assay [4], 29.9 µM; in assay [5], 37 µM; in assay [6], above 67.3 µM. In addition, the TGI is 30.7 µM in assay [7], 11.1 µM in [8] and 38.4 µM in assay [9].
For the compound `CC(=O)NC(Cc1ccsc1)C(=O)O` (configuration not stated), the TGI in assay [1], in assay [2], in assay [3], in [10], in [4] and in [5] was above 100 µM in each case. The TGI in assay [6], in assay [7] and in assay [9] was above 100 µM throughout.
`O=C(O)C12CCCCC1CCCC2` (configuration not stated): the TGI in assay [1], in assay [3], in [10], in [4], in assay [5] and in assay [6] was above 100 µM each time. The TGI in assay [7], in assay [8] and in [9] was above 100 µM in each case.
With `COc1cc(C2C(Cl)C(=O)N2NC(=O)c2ccc(N)cc2)cc(Br)c1O` (configuration not stated), the TGI in assay [1] worked out at 21.8 µM; in [2] it was 43.9 µM; in assay [3], 20 µM; in assay [10] it was 32 µM; in assay [4], 30.7 µM; in assay [5] it was 33.6 µM. Moreover, the TGI stood at 42.8 µM in assay [6], 31.6 µM in [7], 11.3 µM in [8] and 31.7 µM in assay [9].
Take `O=Cc1ccc(CCl)cc1`: the TGI in assay [1] is 23.5 µM; in assay [2] it was 47.7 µM; in assay [3], above 100 µM; in assay [10], 52.5 µM; in assay [4], 34.6 µM; in assay [5] it was 61.8 µM. Further, the TGI in assay [6] was above 100 µM; in assay [7], 32.9 µM; in [8], 31.4 µM; in assay [9] it was 30.2 µM.
